Measured values taken from ChEMBL document CHEMBL5390227, “Development of QTMP: A promising anticancer agent through NP-Privileged Motif-Driven structural modulation” (Bioorg Med Chem, 2023).
Active and inactive are the calls of the source. The calls are words filed in the database; no cut-off is given here.

Assays:
HeLa [1] = test: Antiproliferative activity against human HeLa cells assessed as inhibition of cell growth at 25 nM measured after 24 hrs by SRB assay relative to control; type: functional
A549 [2] = test: Induction of cell cycle arrest in human A549 cells assessed as accumulation of cells at G1 phase at 20 nM incubated for 12 hrs by propidium iodide/RNase-staining based flow cytometry analysis (reference value: 67 +/- 11%); type: functional
MDA-MB-231 = test: Antiproliferative activity against human MDA-MB-231 cells assessed as reduction in cell growth by SRB assay; type: functional, cell-based
MCF7 = test: Antiproliferative activity against human MCF7 cells assessed as reduction in cell growth by SRB assay; type: functional, cell-based
A549 [3] = test: Cytotoxicity against human A549 cells assessed as proportion of live cells at 20 nM incubated for 24 hrs by PI-staining based flow cytometry analysis (reference value: 90.1 to 90.2%); type: functional
A549 [4] = test: Cytotoxicity against human A549 cells assessed as proportion of dead cells at 20 nM incubated for 24 hrs by PI-staining based flow cytometry analysis (reference value: 9.8 to 9.9%); type: functional
[5] = Cytotoxicity against mouse L929 cells assessed as reduction in cell growth by SRB assay; type: toxicity, cell-based
A549 [6] = test: Induction of cell cycle arrest in human A549 cells assessed as accumulation of cells at S phase at 20 nM incubated for 12 hrs by propidium iodide/RNase-staining based flow cytometry analysis (reference value: 22 +/- 6%); type: functional
HeLa [7] = test: Antiproliferative activity against human HeLa cells assessed as reduction in cell growth by SRB assay; type: functional, cell-based
B16-F10 = test: Antiproliferative activity against mouse B16-F10 cells assessed as reduction in cell growth by SRB assay; type: functional, cell-based
A549 [8] = test: Induction of cell cycle arrest in human A549 cells assessed as accumulation of cells at G2/M phase at 20 nM incubated for 12 hrs by propidium iodide/RNase-staining based flow cytometry analysis (reference value: 11 +/- 4%); type: functional
[9] = Antiproliferative activity against human H357 cells assessed as reduction in cell growth by SRB assay; type: functional, cell-based
A549 [10] = test: Antiproliferative activity against human A549 cells assessed as reduction in cell growth by SRB assay; type: functional, cell-based
[11] = Aqueous stability of the compound in PBS assessed as absorbance at 40 uM measured at pH 7.2 after 24 hrs by spectrophotometer analysis; type: physicochemical; conditions: read-out: Stability
T47D = test: Antiproliferative activity against human T47D cells assessed as reduction in cell growth by SRB assay; type: functional, cell-based
A549 [12] = test: Induction of cell cycle arrest in human A549 cells assessed as accumulation of cells at S phase at 10 nM incubated for 12 hrs by propidium iodide/RNase-staining based flow cytometry analysis (reference value: 22 +/- 6%); type: functional
[13] = Inhibition of goat brain tubulin polymerization incubated for 10 mins followed by GTP addition and measured for 35 mins by spectrophotometric analysis; type: tissue-based, Capra hircus
A549 [14] = test: Cytotoxicity against human A549 cells assessed as proportion of dead cells at 10 nM incubated for 24 hrs by PI-staining based flow cytometry analysis (reference value: 9.8 to 9.9%); type: functional
A549 [15] = test: Induction of cell cycle arrest in human A549 cells assessed as accumulation of cells at G1 phase at 10 nM incubated for 12 hrs by propidium iodide/RNase-staining based flow cytometry analysis (reference value: 67 +/- 11%); type: functional
Tubulin (Homo sapiens) [16] = biological target: T1, Tubulin (Homo sapiens) (UniProt P68371+Q9H4B7+P0DPH7+P68366+Q13509+Q71U36+P04350+Q3ZCM7+P07437+P68363+Q9BQE3+Q6PEY2+Q13885+Q9BVA1+Q9BUF5); test: Inhibition of tubulin polymerization in human HeLa cells assessed as induction of interphase microtubule depolymerization at 10 to 20 nM measured after 24 hrs by Hoechst-33258 staining based immunofluorescence analysis; type: cell-based; conditions: dose 10-20 nM
Capra hircus [17] = organism: Capra hircus; test: Inhibition of goat brain tubulin polymerization at 0.5 uM incubated for 10 mins followed by GTP addition and measured for 35 mins by spectrophotometric analysis relative to control; conditions: time 45.0 min
Capra hircus [18] = organism: Capra hircus; test: Binding affinity to colchicine binding site of goat brain tubulin assessed as tubulin-compound complex fluorescence intensity at 10 uM preincubated with podophyllotoxin for 30 mins followed by compound addition and measured after 30 mins by fluorescence based analysis
Tubulin (Homo sapiens) [19] = biological target: T1, Tubulin (Homo sapiens); test: Inhibition of tubulin polymerization in human A549 cells assessed as induction of mitotic spindle microtubules depolymerization at 20 nM measured after 24 hrs by Hoechst-33258 staining based immunofluorescence analysis; type: cell-based
Capra hircus [20] = organism: Capra hircus; test: Inhibition of goat brain tubulin polymerization at 1 uM incubated for 10 mins followed by GTP addition and measured for 35 mins by spectrophotometric analysis relative to control; type: tissue-based; conditions: time 45.0 min
Capra hircus [21] = organism: Capra hircus; test: Inhibition of goat brain tubulin polymerization assessed as reduction in initial rate of tubulin polymerization incubated for 10 mins followed by GTP addition and measured for 35 mins by spectrophotometric analysis; type: tissue-based; conditions: dose 2-6 µM, time 45.0 min
Capra hircus [22] = organism: Capra hircus; test: Binding affinity to colchicine binding site of goat brain tubulin assessed as tubulin-compound complex fluorescence intensity at 10 uM preincubated with CA-4 for 30 mins followed by compound addition and measured after 30 mins by fluorescence based analysis
[23] = Binding affinity to goat brain tubulin assessed as increase in fluorescence intensity incubated for 30 mins by spectrofluorometric analysis; type: tissue-based, Capra hircus
Tubulin (Homo sapiens) [24] = biological target: T1, Tubulin (Homo sapiens); test: Inhibition of tubulin polymerization in human HeLa cells assessed as induction of mitotic microtubule depolymerization at 10 to 20 nM measured after 24 hrs by Hoechst-33258 staining based immunofluorescence analysis; type: cell-based; conditions: dose 10-20 nM
A549 [25] = test: Induction of cell cycle arrest in human A549 cells assessed as accumulation of cells at G2/M phase at 10 nM incubated for 12 hrs by propidium iodide/RNase-staining based flow cytometry analysis (reference value: 11 +/- 4%); type: functional
Tubulin (Homo sapiens) [26] = biological target: T1, Tubulin (Homo sapiens); test: Inhibition of tubulin polymerization in human A549 cells assessed as induction of interphase microtubule disorganization at 20 nM measured after 24 hrs by Hoechst-33258 staining based immunofluorescence analysis; type: cell-based
Capra hircus [27] = organism: Capra hircus; test: Inhibition of goat brain tubulin polymerization at 2 uM incubated for 10 mins followed by GTP addition and measured for 35 mins by spectrophotometric analysis relative to control; conditions: time 45.0 min
A549 [28] = test: Cytotoxicity against human A549 cells assessed as proportion of live cells at 10 nM incubated for 24 hrs by PI-staining based flow cytometry analysis (reference value: 90.1 to 90.2%); type: functional
[29] = Selectivity index, ratio of IC50 for cytotoxicity against mouse L929 cells to IC50 for antiproliferative activity against mouse B16-F10 cells; type: toxicity, cell-based; conditions: L929 cells versus B16-F10 cells, read-out: Ratio IC50
Tubulin (Homo sapiens) [30] = biological target: T1, Tubulin (Homo sapiens); test: Inhibition of tubulin polymerization in human A549 cells assessed as reduction in fluorescence intensity of microtubules at 20 nM measured after 24 hrs by Hoechst-33258 staining based immunofluorescence analysis relative to control; type: cell-based
Tubulin (Homo sapiens) [31] = biological target: T1, Tubulin (Homo sapiens); test: Inhibition of tubulin polymerization in human A549 cells assessed as induction of interphase microtubule disorganization at 10 nM measured after 24 hrs by Hoechst-33258 staining based immunofluorescence analysis; type: cell-based
Capra hircus [32] = organism: Capra hircus; test: Inhibition of goat brain tubulin polymerization at 5 uM incubated for 10 mins followed by GTP addition and measured for 35 mins by spectrophotometric analysis relative to control; conditions: time 45.0 min
Capra hircus [33] = organism: Capra hircus; test: Inhibition of goat brain tubulin polymerization at 3 uM incubated for 10 mins followed by GTP addition and measured for 35 mins by spectrophotometric analysis relative to control; type: tissue-based; conditions: time 45.0 min
Tubulin (Homo sapiens) [34] = biological target: T1, Tubulin (Homo sapiens); test: Inhibition of tubulin polymerization in human A549 cells assessed as reduction in fluorescence intensity of microtubules at 10 nM measured after 24 hrs by Hoechst-33258 staining based immunofluorescence analysis relative to control; type: cell-based
[35] = Aqueous stability of the compound in PBS assessed as absorbance at 40 uM measured at pH 7.2 after 20 days by spectrophotometer analysis; type: physicochemical; conditions: time 20 day, read-out: Stability

## COc1cc(-c2nc(N)[nH]c2-c2ccc3ncccc3c2)cc(OC)c1OC
HeLa [1]
  inhibition at 0.025 µM: 9%

## COc1cc(-c2nc(N)[nH]c2-c2cccc3ncccc23)cc(OC)c1OC
HeLa [1]
  inhibition at 0.025 µM: 27%

## COc1cc(-c2nc(N)[nH]c2-c2cnc3ccc(C)cc3c2)cc(OC)c1OC
HeLa [1]
  inhibition at 0.025 µM: 8%

## COc1ccc(/C=C\c2cc(OC)c(OC)c(OC)c2)cc1O [COMBRETASTATIN A4]
A549 [2]
  Activity: 65%
MDA-MB-231
  IC50: 100 nM
MCF7
  IC50: 24 nM
A549 [3]
  Activity: 90.4%
A549 [4]
  Activity: 7.37%
[5]
  IC50: 117 nM
A549 [6]
  Activity: 18%
HeLa [7]
  IC50: 24 nM
B16-F10
  IC50: 82 nM
A549 [8]
  Activity: 17%
[9]
  IC50: 3.5 nM
A549 [10]
  IC50: 43 nM
[11]
  remaining at 24 h, 40 µM: 47%
T47D
  IC50: 407 nM
HeLa [1]
  inhibition at 0.025 µM: 57%

## COc1cc(-c2nc(N)[nH]c2-c2ccc3ccccc3n2)cc(OC)c1OC
A549 [12]
  Activity: 20%
[13]
  IC50: 3400 nM
A549 [2]
  Activity: 37%
MDA-MB-231
  IC50: 13 nM
MCF7
  IC50: 20 nM
A549 [14]
  Activity: 22%
A549 [15]
  Activity: 51%
Tubulin (Homo sapiens) [16]
  inhibition: Active
Capra hircus [17]
  inhibition: 8%
A549 [3]
  Activity: 62.7%
Capra hircus [18]
  Activity: inactive
Tubulin (Homo sapiens) [19]
  inhibition: Active
A549 [4]
  Activity: 35.9%
[5]
  IC50: 69 nM
Capra hircus [20]
  inhibition: 11%
A549 [6]
  Activity: 19%
HeLa [7]
  IC50: 10 nM
Capra hircus [21]
  inhibition: Dose-Dependent Effect
B16-F10
  IC50: 25 nM
Capra hircus [22]
  Activity: inactive
A549 [8]
  Activity: 44%
[23]
  Kd: 5000 nM
Tubulin (Homo sapiens) [24]
  inhibition: Active
A549 [25]
  Activity: 29%
[9]
  IC50: 15 nM
Tubulin (Homo sapiens) [26]
  inhibition: Active
Capra hircus [27]
  inhibition: 28%
A549 [10]
  IC50: 12 nM
A549 [28]
  Activity: 76.7%
[29]
  selectivity ratio: 2.76
T47D
  IC50: 47 nM
HeLa [1]
  inhibition at 0.025 µM: 74%
Tubulin (Homo sapiens) [30]
  inhibition: 53.2%
Tubulin (Homo sapiens) [31]
  inhibition: Active
Capra hircus [32]
  inhibition: 75%
Capra hircus [33]
  inhibition: 45%
Tubulin (Homo sapiens) [34]
  inhibition: 23.6%
[35]
  remaining at 480 h, 40 µM: 47%

## COc1cc(-c2nc(N)[nH]c2-c2ccc3nc(C)ccc3c2)cc(OC)c1OC
HeLa [1]
  inhibition at 0.025 µM: 5%

## COc1cc(-c2nc(N)[nH]c2-c2cccc3cccnc23)cc(OC)c1OC
HeLa [1]
  inhibition at 0.025 µM: 32%
